Measurements reported in US20060079550A1, “Amino acid derivatives useful for the treatment of alzheimer's disease” (priority 2001, published 2006).
Read-outs that look alike come from different tables or passages of the source.

Target: aspartyl proteases, in particular, beta-secretase
Test: Ki of the compounds listed in Tables 1 and 2 (no method described)
Assay type: biochemical
[1] = Table 1, compounds of formula Ia, W is -(CH2)n-

Ki [1] [nM]	Compound	Ki [nM]
> 300	CC(C)CN([C@@H](CCCCNC(=O)CCc1ccccc1)C(=O)O)S(=O)(=O)c1ccc(N)cc1 [Compound No. 158, Nα-isobutyl-Nα-(4-aminobenzenesulfonyl)-Nε-dihydrocinnamoyl-L-lysine]	
> 300	COc1ccccc1/C=C/C(=O)NCCCC[C@@H](C(=O)O)N(CC(C)C)S(=O)(=O)c1ccc([N+](=O)[O-])cc1 [Compound No. 161, Nα-isobutyl-Nα-(4-nitrobenzenesulfonyl)-Nε-(trans-2-methoxycinnamoyl)-L-lysine]	
> 300	COc1cccc(C=CC(=O)NCCCC[C@@H](C(=O)O)N(CC(C)C)S(=O)(=O)c2ccc([N+](=O)[O-])cc2)c1 [Compound No. 162, Nα-isobutyl-Nα-(4-nitrobenzenesulfonyl)-Nε-(3-methoxycinnamoyl)-L-lysine]	
> 300	CC(C)CN([C@@H](CCCCNC(=O)C=Cc1ccc2c(c1)OCO2)C(=O)O)S(=O)(=O)c1ccc([N+](=O)[O-])cc1 [Compound No. 163, Nα-isobutyl-Nα-(4-nitrobenzenesulfonyl)-Nε-(3,4-methylenedioxycinnamoyl)-L-lysine]	
> 300	CC(C)CN([C@@H](CCCCNC(=O)/C=C/c1cccnc1)C(=O)O)S(=O)(=O)c1ccc([N+](=O)[O-])cc1 [Compound No. 164, Nα-isobutyl-Nα-(4-nitrobenzenesulfonyl)-Nε-(trans-3-(3-pyridyl)acryloyl)-L-lysine]	
	Cc1ccc(S(=O)(=O)N(CC(C)C)C(CNCCNC(=O)CCc2ccccc2)C(=O)O)cc1 [Compound No. 206, (2R,2S)-2-[N-isobutyl-N-(4-methylbenzenesulfonyl)]-3-[2′-(N′-dihydrocinnamoyl)ethylamino]-propionic Acid]	> 300
105	Cc1ccc(S(=O)(=O)N(CC(C)C)C(CCCCNC(=O)C2c3ccccc3-c3ccccc32)C(=O)O)cc1 (stereo not shown) [compound 83]	
89.7	Cc1ccc(S(=O)(=O)N(CC(C)C)[C@@H](CCCCNC(=O)CC2c3ccccc3-c3ccccc32)C(=O)O)cc1 [compound 84]	
> 1250	Cc1ccc(S(=O)(=O)N(CC(C)C)[C@@H](CCCCNC(=O)c2c[nH]c3ccccc23)C(=O)O)cc1 [compound 87]	
> 625	Cc1ccc(S(=O)(=O)N(CC(C)C)[C@@H](CCCCNC(=O)c2cc3ccccc3[nH]2)C(=O)O)cc1 [compound 88]	
6.9	Cc1ccc(S(=O)(=O)N(CC(C)C)[C@@H](CCCCNC(=O)CCc2c[nH]c3ccccc23)C(=O)O)cc1 [compound 89]	
747	Cc1ccc(S(=O)(=O)N(CC(C)C)C(CCCCNC(=O)C=Cc2ccccc2)C(=O)O)cc1 (stereo not shown) [compound 90]	
8	Cc1ccc(S(=O)(=O)N(CC(C)C)[C@@H](CCCCNC(=O)CCc2ccccc2)C(=O)O)cc1 [compound 91]	
> 300	COc1cccc(C=CC(=O)NCCCC[C@@H](C(=O)O)N(CC(C)C)S(=O)(=O)c2ccc([N+](=O)[O-])cc2)c1OC [compound 110, Nα-isobutyl-Nα-(4-nitrobenzenesulfonyl)-Nε-(2,3-dimethoxycinnamoyl)-L-lysine]	
63000	Nα-(9-fluorenylmethoxycarbonyl)-L-lysyl-Nα-(9-fluorenylmethoxy-carbonyl)-Nε-(2,4,6trimethylbenzenesulfonyl)-L-lysine [compound 26]	

Compound	Ki [1] [nM]	Ki [nM]
CC(C)CN([C@@H](CCCCNC(=O)COc1ccccc1)C(=O)O)S(=O)(=O)c1ccc([N+](=O)[O-])cc1 [Compound No. 160, Nα-isobutyl-Nα-(4-nitrobenzenesulfonyl)-Nε-phenoxyacetyl-L-lysine]	24.5	
Cc1ccc(S(=O)(=O)N(CC(C)C)[C@@H](CCCCNC(=O)C2c3ccccc3Oc3ccccc32)C(=O)O)cc1 [compound 85]	14.5	
Cc1ccc(S(=O)(=O)N(CC(C)C)[C@@H](CCCCNC(=O)C(c2ccccc2)c2ccccc2)C(=O)O)cc1 [compound 86]	171	
CC(C)CN([C@@H](CCCCNS(=O)(=O)c1ccc([N+](=O)[O-])cc1)C(=O)O)S(=O)(=O)c1ccc([N+](=O)[O-])cc1 [compound 116, Nα-isobutyl-Nα,Nε-di-(4-nitrobenzenesulfonyl)-L-lysine]	> 300	
